Here are results for twelve compounds from ChEMBL document CHEMBL1201862, “PubChem BioAssay data set” (2004).

The structures appear in SMILES notation.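 Five compound concentrations were applied to cells in 96-well plates for 48 hours; endpoints were derived by simple linear interpolation of the resulting dose-response curve. GI50 = concentration required for 50% inhibition of growth.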 Active and inactive are the calls of the source. Cut-off read from the data, not from the text of the source: active = GI50 up to about 1.1 µM and inactive = higher.

Test systems include M19-MEL; SK-OV-3; RXF 393; A498; SF-539; UACC-62; MOLT-4; OVCAR-8; COLO 205; 786-0; HCT-15; SK-MEL-28; KM12; SW-620; CCRF-CEM; NCI-H23; U-251; SR.
Holding throughout (test): NCI anticancer screen, dose series, 48 h

As to `CC(=O)NNc1nc(C)c(C(=O)/C=C/c2ccc(Cl)c(Cl)c2)s1`, the GI50 in the assay with M19-MEL, with SK-OV-3, in the assay with RXF 393, in the assay on A498, in the assay on SF-539 and with UACC-62 was > 100 µM (inactive) in each case. Besides, the GI50 is > 100 µM (inactive) in the assay on MOLT-4; > 100 µM (inactive) with OVCAR-8; > 100 µM (inactive) with COLO 205; > 100 µM (inactive) in the assay with 786-0; over 100 µM with HCT-15; > 100 µM (inactive) in the assay with SK-MEL-28. In addition, the GI50 in the assay on KM12 is > 100 µM (inactive); with SW-620, > 100 µM (inactive); in the assay with CCRF-CEM it was 70.5 µM (inactive); with NCI-H23, > 100 µM (inactive); with U-251, > 100 µM (inactive).
As to `O=C(Nc1ccc(Cl)cc1)/C(Cc1cccc[n+]1[O-])=N\Nc1ccc([N+](=O)[O-])cc1[N+](=O)[O-]`, the GI50 with M19-MEL, with SK-OV-3, in the assay with RXF 393, in the assay on A498, in the assay on SF-539 and in the assay with UACC-62 was > 100 µM (inactive) in each case. The GI50 in the assay on MOLT-4 was > 100 µM (inactive); in the assay on OVCAR-8 it was > 100 µM (inactive); in the assay on COLO 205 it was > 100 µM (inactive); in the assay with 786-0, > 100 µM (inactive); in the assay with HCT-15 it was over 100 µM; with SK-MEL-28 it was > 100 µM (inactive). For the same compound, the GI50 in the assay on KM12, with SW-620, in the assay on CCRF-CEM, with NCI-H23 and in the assay on U-251 was > 100 µM (inactive) throughout.
For the compound `CC(=O)OC(C)(C)C1CCC(C)(C(O)COc2ccc(CCNC(=O)c3ccccc3)cc2)O1` (stereo not drawn), the GI50 with M19-MEL is 37.3 µM (inactive); in the assay with SR, 47.1 µM (inactive); in the assay on SK-OV-3, > 100 µM (inactive); in the assay on RXF 393, 6.68 µM (inactive); in the assay on SF-539, 60.8 µM (inactive); with UACC-62, 30.8 µM (inactive). In addition, the GI50 is 14.8 µM (inactive) in the assay with MOLT-4; 47.5 µM (inactive) with OVCAR-8; > 100 µM (inactive) in the assay with COLO 205; > 100 µM (inactive) in the assay with 786-0; 46 µM in the assay with HCT-15; 79.8 µM (inactive) in the assay on SK-MEL-28. The GI50 in the assay on KM12 was 60.8 µM (inactive); with SW-620 it was > 100 µM (inactive); with CCRF-CEM, 21.6 µM (inactive); in the assay on NCI-H23, > 100 µM (inactive); in the assay with U-251, 53.3 µM (inactive).
On to `C=CC1=C(C)/C(=C/C2=NC(=C\c3[nH]c(CC4NC(=O)C(C)/C4=C\C)c(C)c3CCC(=O)O)/C(CC(=O)O)=C2C)NC1=O` (stereo not drawn), for which the GI50 in the assay on M19-MEL, in the assay on SR, in the assay on SK-OV-3, with RXF 393, in the assay with SF-539 and in the assay on UACC-62 was > 100 µM (inactive) each time. Further, the GI50 in the assay on MOLT-4 was > 100 µM (inactive); in the assay with OVCAR-8, > 100 µM (inactive); in the assay with COLO 205, > 100 µM (inactive); with 786-0, > 100 µM (inactive); with HCT-15, over 100 µM; in the assay with SK-MEL-28 it was > 100 µM (inactive). In addition, the GI50 in the assay with KM12, in the assay on SW-620, with CCRF-CEM, with NCI-H23 and with U-251 was > 100 µM (inactive) in each case.
Consider `CN1C2(c3ccccc3)c3c(-c4ccccc4)sc(-c4ccccc4)c3C1(c1ccccc1)C1C(=O)N(c3ccccc3)C(=O)C12` (stereo not drawn), for which the GI50 in the assay with M19-MEL, in the assay with SK-OV-3, in the assay with RXF 393, in the assay with A498, in the assay with SF-539 and in the assay with UACC-62 was > 100 µM (inactive) each time. Also, the GI50 with OVCAR-8, with COLO 205, in the assay on 786-0, in the assay with SK-MEL-28, in the assay on KM12 and with SW-620 was > 100 µM (inactive) each time. For the same compound, the GI50 with CCRF-CEM, in the assay on NCI-H23 and with U-251 was > 100 µM (inactive) each time.
As to `Cc1cc(N)c(C)c2c1[nH]c1ccc(O)cc12`, the GI50 with M19-MEL was 61 µM (inactive); in the assay with SR, 45 µM (inactive); in the assay with SF-539, > 100 µM (inactive); with MOLT-4, 32.4 µM (inactive); with OVCAR-8, 88.5 µM (inactive); in the assay on COLO 205, 47.9 µM (inactive). Besides, the GI50 in the assay on 786-0 was 91.8 µM (inactive); with HCT-15, over 100 µM; in the assay with SK-MEL-28 it was > 100 µM (inactive); with KM12, > 100 µM (inactive); in the assay with SW-620, 39.1 µM (inactive); with CCRF-CEM, 20.7 µM (inactive). For the same compound, the GI50 was > 100 µM (inactive) with NCI-H23 and 88.5 µM (inactive) in the assay with U-251.
In the case of `O=c1ccccc2cccc(O)c12`, the GI50 in the assay with M19-MEL, in the assay with SK-OV-3, in the assay with RXF 393, in the assay on A498, in the assay with SF-539 and with UACC-62 was > 100 µM (inactive) in each case. Moreover, the GI50 is > 100 µM (inactive) in the assay on MOLT-4; > 100 µM (inactive) with OVCAR-8; > 100 µM (inactive) in the assay on COLO 205; > 100 µM (inactive) in the assay with 786-0; over 100 µM in the assay on HCT-15; > 100 µM (inactive) in the assay with SK-MEL-28. Further, the GI50 with SW-620, with CCRF-CEM, in the assay with NCI-H23 and with U-251 was > 100 µM (inactive) throughout.
As for `COC(=O)[C@]12CSCN1C(=O)C(C(C)=O)=NN2C(=O)[C@](OC)(c1ccccc1)C(F)(F)F`, the GI50 was > 100 µM (inactive) in the assay on M19-MEL; > 10 µM (inactive) with SR; 90.6 µM (inactive) with RXF 393; > 100 µM (inactive) with SF-539; > 100 µM (inactive) in the assay on UACC-62; > 100 µM (inactive) in the assay with MOLT-4. Also, the GI50 is > 100 µM (inactive) in the assay with OVCAR-8; > 100 µM (inactive) with COLO 205; > 100 µM (inactive) in the assay on 786-0; over 100 µM in the assay with HCT-15; > 100 µM (inactive) with SK-MEL-28; > 100 µM (inactive) in the assay on KM12. Further, the GI50 in the assay with SW-620 is > 100 µM (inactive); with CCRF-CEM, > 10 µM (inactive); in the assay on NCI-H23, > 100 µM (inactive); in the assay on U-251, > 100 µM (inactive).
Regarding `CC[n+]1c(/C=C/c2cc(C(=O)OC)n3c2sc2ccccc23)sc2ccccc21`, the GI50 was 18.9 µM (inactive) with M19-MEL; > 10 µM (inactive) in the assay with SR; 17.9 µM (inactive) in the assay with SK-OV-3; 18.2 µM (inactive) in the assay on SF-539; 0.394 µM (active) with UACC-62; 11.4 µM (inactive) in the assay on MOLT-4. Besides, the GI50 in the assay with COLO 205 was 22.9 µM (inactive); in the assay with 786-0 it was 19.1 µM (inactive); in the assay on HCT-15 it was 18.8 µM; in the assay on KM12 it was 14.7 µM (inactive); with CCRF-CEM, 0.214 µM (active).
With `Brc1ccc(N2C[N+](c3ccc(Br)cc3)=NC(c3ccccc3)=N2)cc1.[O-][Cl+3]([O-])([O-])[O-]`, the GI50 in the assay on M19-MEL, with SK-OV-3, in the assay with RXF 393, in the assay on A498, with SF-539 and in the assay on UACC-62 was > 100 µM (inactive) each time. In addition, the GI50 with MOLT-4 is 43 µM (inactive); in the assay with OVCAR-8 it was > 100 µM (inactive); in the assay with COLO 205 it was 63.4 µM (inactive); in the assay on 786-0, > 100 µM (inactive); in the assay with HCT-15, over 100 µM; with SK-MEL-28, > 100 µM (inactive). Also, the GI50 with KM12 is > 100 µM (inactive); in the assay on SW-620, > 100 µM (inactive); in the assay on NCI-H23 it was 46.9 µM (inactive); in the assay with U-251 it was > 100 µM (inactive).
Regarding `COc1cc(C2C(Cl)C(=O)N2NC(=O)c2ccc(N)cc2)ccc1O` (stereo not drawn), the GI50 in the assay on M19-MEL is 55.5 µM (inactive); in the assay on SK-OV-3 it was 60.5 µM (inactive); in the assay on A498, > 100 µM (inactive); in the assay on SF-539 it was 26.5 µM (inactive); in the assay on UACC-62, 64.1 µM (inactive); with MOLT-4, 23.5 µM (inactive). For the same compound, the GI50 in the assay on OVCAR-8 was 21.5 µM (inactive); in the assay on COLO 205 it was 20.8 µM (inactive); in the assay on 786-0, 19.1 µM (inactive); with HCT-15, 39.9 µM; with SK-MEL-28, 39.2 µM (inactive); in the assay with KM12, 25.1 µM (inactive). Moreover, the GI50 with SW-620 is 17.2 µM (inactive); with CCRF-CEM, 18.5 µM (inactive); in the assay with NCI-H23 it was 20.9 µM (inactive); in the assay on U-251, 18 µM (inactive).
For the compound `CCOC(=O)C(=O)Nc1c(N(CC)CC)n2ccccc2nc1=O`, the GI50 with M19-MEL, in the assay on SR, in the assay on SK-OV-3, in the assay on A498, in the assay on SF-539 and in the assay on UACC-62 was > 100 µM (inactive) in each case. In addition, the GI50 is > 100 µM (inactive) with MOLT-4; > 100 µM (inactive) in the assay on OVCAR-8; > 100 µM (inactive) in the assay on COLO 205; > 100 µM (inactive) in the assay on 786-0; over 100 µM with HCT-15; > 100 µM (inactive) in the assay with KM12. For the same compound, the GI50 in the assay on SW-620, in the assay on CCRF-CEM, in the assay on NCI-H23 and with U-251 was > 100 µM (inactive) in each case.
